Results reported in article PMC7004565, “Nucleotide inhibition of the pancreatic ATP-sensitive K^+ channel explored with patch-clamp fluorometry” (eLife, 2020).
Where “and” joins values, the source holds several entries; their conditions need not be identical. Equal values may be shown once. Read-outs that look alike come from different tables or passages of the source.

Tests used:
Kir6.2*,C166S-GFP + SUR1 [1] = target: T1, Kir6.2*,C166S-GFP + SUR1 (Homo sapiens, UniProt Q14654, C166S); experiment: Current inhibition in excised inside-out patches (patch-clamp fluorometry)
Kir6.2-GFP + SUR1 = Kir6.2-GFP + SUR1 (Homo sapiens, UniProt Q14654); experiment: Current inhibition in excised inside-out patches; assay type: biochemical; parameters: ANAP labelling is specific and only full-length Kir6.2 is expressed at the cell membrane; expressed in transfected cells; host or cells: HEK-293T; conditions: Mg2+-free, Hill fit
Procedure: Currents were measured from patches from cells expressing KATP that were excised in the absence of Mg^2+. Under such conditions, nucleotides can bind to both sites on SUR1, but no activation occurs, allowing inhibitory currents to be measured in isolation ([Gribble et al., 1998]; [Ueda et al., 1999]; [Puljung et al., 2019]).

Kir6.2*,C166S-GFP + SUR1 [2] = target: T1, Kir6.2*,C166S-GFP + SUR1; experiment: Bayesian MWC-type model fits to combined patch-clamp fluorometry data; assay type: biochemical; parameters: ANAP labelling is specific and only full-length Kir6.2 is expressed at the cell membrane; expressed in transfected cells; host or cells: HEK-293T; conditions: for Kd: read-out: KA (intrinsic binding affinity to the closed state) (converted)
Excerpt: Our simultaneous binding and current measurements were well fit with a Monod-Wyman-Changeux (MWC)-type model (Figure 2D,E; [Monod et al., 1965]) which has been previously proposed to explain KATP channel inhibition ([Enkvetchakul and Nichols, 2003]; [Craig et al., 2008]; [Vedovato et al., 2015]). In our MWC-type model, each ligand binding event ( KA ) is independent and each bound ligand favours the closed state by the same factor ( D ). Simultaneous measurement of binding (fluorescence) and gating (current) allowed us to obtain well constrained fits to our model. To obtain free parameter ( L , KA , D ) estimates and verify that each parameter was well and uniquely determined, we employed a Bayesian Markov chain Monte Carlo (MCMC) method previously employed by [Hines et al. (2014)]. Using this approach, we constructed posterior probability distributions for the free parameters of our MWC-type model (Figure 2F, Table 3). […] Our estimate of L was quite low and broadly distributed. We repeated our fits with L fixed to a value consistent with previous single channel measurements (0.8, Popen=0.45; [John et al., 1998]; [Enkvetchakul et al., 2000]; [Ribalet et al., 2006]). This had only a very small effect on our estimates of D and KA (Figure 2—figure supplement 1). The broad distribution of L in our fit may represent current rundown which occurs during our patch-clamp recordings and is expected to affect the open-closed equilibrium.
In addition to the full MWC-type model we considered alternate models (Figure 2—figure supplement 2). These included a model in which only the first binding event influences the open-closed equilibrium of the channel (single-binding model; Figure 2—figure supplement 2B, Table 3), and an MWC-style model with an additional parameter C to allow for direct negative cooperativity between binding sites (negative cooperativity model; Figure 2—figure supplement 2C, Table 3). The single-binding model yielded very similar parameter estimates to our full MWC-type model (Figure 2—figure supplement 2D, Table 3). This is a consequence of D being so low that even in the MWC-type model most channels are closed when only a single nucleotide is bound. The cooperative model improved our fits, but not enough to justify the inclusion of an additional free parameter (see Discussion).
The MWC-type models considered (Figure 2 and Figure 2—figure supplement 2) were formulated as follows:(3) F/Fmax=KA[TNPATP](1+KA[TNPATP])^3+LDKA[TNPATP](1+DKA[TNPATP])^3/(1+KA[TNPATP])^4+L(1+DKA[TNPATP])^4 (4) open channels/total channels=L(1+DKA[TNPATP])^4/(1+KA[TNPATP])^4+L(1+DKA[TNPATP])^4
The first was similar to the MWC-type model, except that the channels close after one molecule of TNP-ATP binding with subsequent binding events having no effect.(7) F/Fmax=LDKA[TNPATP](1+3KA[TNPATP]+3KA2[TNPATP]^2+KA3[TNPATP]^3)+KA[TNPATP](1+KA[TNPATP])^3/L(1+4DKA[TNPATP]+6DKA2[TNPATP]^2+4DKA3[TNPATP]^3+DKA4[TNPATP]^4)+(1+KA[TNPATP])^4 (8) I/Imax=L(1+4DKA[TNPATP]+6DKA2[TNPATP]^2+4DKA3[TNPATP]^3+DKA4[TNPATP]^4)/L(1+4DKA[TNPATP]+6DKA2[TNPATP]^2+4DKA3[TNPATP]^3+DKA4[TNPATP]^4)+(1+KA[TNPATP])^4⋅1+L/L
The second alternate model was the same as the full MWC model, but with an additional term C describing binding cooperativity between Kir6.2 subunits.(9) F/Fmax=LDKA[TNPATP](1+3CDKA[TNPATP]+3C^2D^2KA2[TNPATP]^2+C^3D^3KA3[TNPATP]^3)+KA[TNPATP](1+3CKA[TNPATP])+3C^2KA2[TNPATP]^2+C^3KA3[TNPATP]^3)/L(1+4DKA[TNPATP]+6CD^2KA2[TNPATP]^2+4C^2D^3KA3[TNPATP]^3+C^3D^4KA4[TNPATP]^4)+1+4KA[TNPATP]+6CKA2[TNPATP]^2+4C^2KA3[TNPATP]^3+C^3KA4[TNPATP]^4 (10) I/Imax=L(1+4DKA[TNPATP]+6CD^2KA2[TNPATP]^2+4C^2D^3KA3[TNPATP]^3+C^3D^4KA4[TNPATP]^4)/L(1+4DKA[TNPATP]+6CD^2KA2[TNPATP]^2+4C^2D^3KA3[TNPATP]^3+C^3D^4KA4[TNPATP]^4)+1+4KA[TNPATP]+6C^2KA2[TNPATP]^2+4C^2KA3[TNPATP]^3+C^3KA4[TNPATP]^4⋅1+L/L […]

[3] = Full MWC model, median estimate
[4] = Single-site (single-binding) model

T1 sequence (Q14654 whole entry C166S): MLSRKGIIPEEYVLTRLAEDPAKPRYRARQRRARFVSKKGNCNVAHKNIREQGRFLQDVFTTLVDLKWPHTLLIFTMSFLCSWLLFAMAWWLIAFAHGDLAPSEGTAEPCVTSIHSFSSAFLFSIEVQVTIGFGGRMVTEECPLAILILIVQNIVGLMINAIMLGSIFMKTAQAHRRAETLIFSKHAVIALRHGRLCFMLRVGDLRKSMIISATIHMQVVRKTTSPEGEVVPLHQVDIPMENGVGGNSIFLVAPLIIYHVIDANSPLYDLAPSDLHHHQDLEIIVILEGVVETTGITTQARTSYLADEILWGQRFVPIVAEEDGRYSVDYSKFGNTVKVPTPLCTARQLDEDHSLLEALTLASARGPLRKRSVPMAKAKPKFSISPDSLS
T1 sequence (Q09428 whole entry partner): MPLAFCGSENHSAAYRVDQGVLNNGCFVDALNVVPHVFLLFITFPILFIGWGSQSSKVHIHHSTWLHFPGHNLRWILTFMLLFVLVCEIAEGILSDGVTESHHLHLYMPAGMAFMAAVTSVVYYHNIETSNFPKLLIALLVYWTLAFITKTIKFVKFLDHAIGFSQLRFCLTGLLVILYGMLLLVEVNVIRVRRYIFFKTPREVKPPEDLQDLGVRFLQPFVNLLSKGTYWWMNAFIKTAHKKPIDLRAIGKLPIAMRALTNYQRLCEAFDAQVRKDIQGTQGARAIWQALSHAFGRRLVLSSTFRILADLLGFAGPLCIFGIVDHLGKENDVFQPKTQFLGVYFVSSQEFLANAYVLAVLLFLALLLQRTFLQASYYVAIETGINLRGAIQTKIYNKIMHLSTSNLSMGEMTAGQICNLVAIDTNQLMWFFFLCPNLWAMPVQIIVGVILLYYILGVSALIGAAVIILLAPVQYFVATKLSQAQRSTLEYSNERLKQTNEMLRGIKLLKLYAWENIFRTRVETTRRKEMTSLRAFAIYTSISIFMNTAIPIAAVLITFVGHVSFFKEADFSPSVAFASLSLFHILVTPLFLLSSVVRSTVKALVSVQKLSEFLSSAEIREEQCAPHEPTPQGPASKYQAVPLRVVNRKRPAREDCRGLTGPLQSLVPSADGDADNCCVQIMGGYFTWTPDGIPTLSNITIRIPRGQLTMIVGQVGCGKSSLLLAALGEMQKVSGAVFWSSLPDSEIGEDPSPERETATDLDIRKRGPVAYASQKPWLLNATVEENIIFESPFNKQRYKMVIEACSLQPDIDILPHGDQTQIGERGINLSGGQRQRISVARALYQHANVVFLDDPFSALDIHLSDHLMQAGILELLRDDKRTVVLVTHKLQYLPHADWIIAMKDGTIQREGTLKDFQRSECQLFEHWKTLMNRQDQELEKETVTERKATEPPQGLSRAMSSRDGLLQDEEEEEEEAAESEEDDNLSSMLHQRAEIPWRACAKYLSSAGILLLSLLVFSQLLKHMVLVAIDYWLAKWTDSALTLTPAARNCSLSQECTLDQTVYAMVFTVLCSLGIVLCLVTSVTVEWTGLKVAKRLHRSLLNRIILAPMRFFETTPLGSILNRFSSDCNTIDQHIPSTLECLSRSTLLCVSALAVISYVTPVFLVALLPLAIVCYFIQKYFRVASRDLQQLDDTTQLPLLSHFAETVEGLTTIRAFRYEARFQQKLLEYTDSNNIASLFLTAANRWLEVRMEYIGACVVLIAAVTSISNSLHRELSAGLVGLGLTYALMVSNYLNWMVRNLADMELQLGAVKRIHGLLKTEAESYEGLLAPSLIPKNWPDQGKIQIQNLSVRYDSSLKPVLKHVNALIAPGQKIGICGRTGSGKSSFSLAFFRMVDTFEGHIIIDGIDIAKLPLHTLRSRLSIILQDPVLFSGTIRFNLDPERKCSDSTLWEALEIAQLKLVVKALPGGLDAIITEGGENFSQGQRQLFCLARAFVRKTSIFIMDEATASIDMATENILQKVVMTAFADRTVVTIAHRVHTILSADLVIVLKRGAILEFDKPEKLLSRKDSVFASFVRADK
Sequence of Kir6.2-GFP + SUR1 (Q14654 whole entry): as the sequence (Q14654 whole entry C166S) above, with S166C counted along it
Sequence of Kir6.2-GFP + SUR1 (Q09428 whole entry partner): as the sequence (Q09428 whole entry partner) above

Nc1ncnc2c1ncn2[C@@H]1O[C@H](COP(=O)(O)OP(=O)(O)OP(=O)(O)O)[C@H]2OC3(O[C@H]21)C([N+](=O)[O-])=CC(=[N+]([O-])[O-])C=C3[N+](=O)[O-] (some centres unmarked) [TNP-ATP, trinitrophenyl-ATP]
IC50 (Kir6.2*,C166S-GFP + SUR1 [1]): 776 µM
h (Hill coefficient) current inhibition (Kir6.2*,C166S-GFP + SUR1 [1]; excised inside-out patches, Mg2+-free, Hill fit): 1.35
IC50 (Kir6.2-GFP + SUR1; IC50 current inhibition): 1.2 µM and 1.17 µM
h (Hill coefficient) current inhibition (Kir6.2-GFP + SUR1): 1.14
D (factor by which nucleotide binding favours channel closure) (Kir6.2*,C166S-GFP + SUR1 [2]; [3]): 0.84
L (unliganded open-closed equilibrium constant) (Kir6.2*,C166S-GFP + SUR1 [2]; [3]): 0.29 log10
Kd (Kir6.2*,C166S-GFP + SUR1 [2]; [3]): 66.1 µM
C (binding cooperativity between Kir6.2 subunits) (Kir6.2*,C166S-GFP + SUR1 [2]; Negative cooperativity model): 0.52
D (factor by which nucleotide binding favours channel closure) (Kir6.2*,C166S-GFP + SUR1 [2]; Negative cooperativity model): 0.83
L (unliganded open-closed equilibrium constant) (Kir6.2*,C166S-GFP + SUR1 [2]; Negative cooperativity model): 0.32 log10
Kd (Kir6.2*,C166S-GFP + SUR1 [2]; Negative cooperativity model): 37.2 µM
D (factor by which nucleotide binding favours channel closure) (Kir6.2*,C166S-GFP + SUR1 [2]; [4]): 0.70
L (unliganded open-closed equilibrium constant) (Kir6.2*,C166S-GFP + SUR1 [2]; [4]): 0.09 log10
Kd (Kir6.2*,C166S-GFP + SUR1 [2]; [4]): 70.8 µM
